The test system of this test is HMPV clinical isolate A2 strain TN 94-49. The test can be described thus: HMPV antiviral assay, Method 2 (LLC-MK2 cells with CP-100-356, ATP-Lite). The format is cell-based. Conditions: human metapneumovirus. As to the method: In vitro HMPV antiviral activity was evaluated using the clinical isolate A2 strain TN 94-49 (obtained from Dr. John Williams, Vanderbilt University, Tennessee) and LLC-MK2 cells (Millipore Sigma CB_85062804), an immortalized kidney epithelial cell line from Macaca mulatta. Compounds were resuspended in dimethyl sulfoxide (DMSO) at 10 mM, serially diluted and added to a 384-well source plate. Subsequently, the compounds were diluted and transferred onto 384-well assay plates using the Echo-650 automated liquid handling system (Beckman Coulter, Indiana). The test compounds were assessed in duplicate at a top concentration of 200 nM followed by 2.5-fold serial dilutions to give a total of 10 concentration points. DMSO control wells were also included on the assay plates and were either infected or not, acting as positive and negative controls. A2 TN 94-49 virus infections were performed in-suspension with LLC-MK2 cells. The cells were washed twice with PBS and removed from the cell-culture flask with 0.25% trypsin-EDTA (Thermo Fisher Scientific, MA). The trypsin-EDTA was inactivated by resuspending in 2% fetal bovine serum (FBS) and OptiMEM (ThermoFisher Scientific, MA) containing 1% antibiotic-antimycotic. Cells were pelleted by centrifuging for 5 minutes at 800 rpm, the supernatant was removed, and cells were re-suspended and washed in PBS plus 100 μg/mL CaCl2). This step was performed twice. Cells were then re-suspended in serum-free (SF)-OptiMEM containing 4 μg/mL TPCK-Trypsin (Sigma Aldrich, MO), 1% antibiotic-antimycotic (ThermoFisher Scientific, MA), 100 μg/mL CaCl2), and 4 μM of CP-100-356, a P-glycoprotein inhibitor. Cells were counted and seeded at a density of 5,000 cells/well, 12.5 μL/well. Virus infections were done at a multiplicity of infection (MOI) of 0.16 with 12.5 μL added per well. Virus infections were performed in infection media which contained SF-OptiMEM, 100 μg/mL CaCl2) and 1% antibiotic-antimycotic. HMPV viral stocks are suspended in infection media+5% glycerol, thus an equal volume of infection media+5% glycerol was added to uninfected wells to equalize the final % glycerol across all wells of the assay plate. The final concentration of TPCK-trypsin was 2 μg/mL. The final concentration of CP-100-356 was 2 μM. The assay plates were incubated at 37° C., 5% CO2 for 7 days. After 7 days incubation, 12.5 μL of ATP-Lite (PerkinElmer, MA) was added to each well and the raw luminescence values were determined using the Envision 2104 (Perkin Elmer, MA). The average of the raw luminescence values for the cells and virus only positive control wells was subtracted from all conditions tested and the percent cell health was determined by dividing these values by the average of the cells only negative control wells. EC50 values were then calculated by non-linear regression using a four-parameter curve logistic equation. The curve fit model employed was XLFit Dose Response One Site Model 200: y=(A+(B/(1+((x/C)^D)))), where A is the minimum y value, B is the maximum y value, C is the log EC50 value, and D is the slope factor.

The mark [1] stands for this setting: 168 h, hMPV A2 TN/94-49, LLC-MK2 cells with 4 μM CP-100-356, 7 days, ATP-Lite.
The mark [2] stands for this setting: hMPV A2 TN/94-49, LLC-MK2 cells with CP-100-356, Method 2.

Under setting [1], `COc1cc(C(=O)NC[C@](O)(c2cc3c(c(-c4ccnc(N(C)C)c4Cl)n2)OC[C@]3(C)C(N)=O)C2CC2)cc2cn(C3CC3)nc12` [Example 811] gave an EC50 of under 0.2 µM.
Still for that read-out and setting: the same measure for `COc1cc(C(=O)NC[C@@](O)(c2ccc(F)cc2)c2cc3c(c(-c4ccnc(C)c4Cl)n2)OC[C@]3(C)C(N)=O)cc2cn(C3(F)CC3)nc12` [Example 647]: under 0.2 µM.
As to `COc1cc(C(=O)NC[C@@](O)(c2cccc(F)c2)c2cc3c(c(-c4ccnc(C(F)F)c4Cl)n2)OC[C@]3(C)C(N)=O)cc2cn(C3(F)CC3)nc12` [Example 566], the EC50 under setting [2] is under 0.2 µM.
`COc1cc(C(=O)NC[C@](O)(c2cc3c(c(-c4ccnc(C(F)(F)F)c4Cl)n2)OC[C@]3(C)C(N)=O)C(F)(F)F)cc2cc(C3CC3)nn12` [Example 596] yielded an EC50 under setting [2] of under 0.2 µM.
Under setting [1], `COc1nccc(-c2nc([C@@](O)(CNC(=O)c3cc(OC4CC4)c4nn(C(F)F)cc4c3)c3ccccc3)cc3c2OC[C@]3(C)C(N)=O)c1Cl` [Example 901] had an EC50 of under 0.2 µM.
Consider `CNc1cc([C@](O)(CNC(=O)c2cc(OC)c3nn(C4CC4)cc3c2)c2cc3c(c(-c4cc(Cl)c(F)cc4F)n2)OC[C@]3(C)C(N)=O)ccn1` [Example 490], for which the EC50 under setting [2] was under 0.2 µM.
`COc1cc(C(=O)NCC(O)(c2ccccc2)c2cc3c(c(-c4ccc(F)c(Cl)c4)n2)OC[C@]3(C)C(N)=O)cc2cn(C3(F)CC3)nc12` (stereo partly shown) [Example 362] displayed an EC50 under setting [2] of under 0.2 µM.
Same read-out and setting: then `COc1cc(C(=O)NC[C@@](O)(c2ccccc2)c2cc3c(c(-c4ccc5c(c4)OC(F)(F)O5)n2)OC[C@]3(C)C(N)=O)cc2oc(C)nc12` [Example 201], with under 0.2 µM; and `COc1cc(C(=O)NC[C@](O)(c2cc3c(c(-n4ccc5ccncc54)n2)OC[C@]3(C)C(N)=O)C2CC2)cc2cn(C3CC3)nc12` [Example 448], with over 0.2 µM; and `COc1cc(C(=O)NC[C@@](O)(c2ccccc2)c2cc3c(c(-c4cccc(Cl)c4F)n2)OC[C@]3(C)C(N)=O)cc2cn(C3(F)CC3)nc12` [Example 369], with under 0.2 µM.
Consider `COc1cc(-c2nc([C@@](O)(CNC(=O)c3cc(OC)c4nn(C5(F)CC5)cc4c3)c3ccccc3)cc3c2OC[C@]3(C)C(N)=O)c(F)cn1` [Example 640], for which the EC50 under setting [1] was under 0.2 µM.
The compound `COc1cc(C(=O)NC[C@@](O)(c2cccc(F)c2)c2cc3c(c(-c4cccc(Cl)c4Cl)n2)OC[C@]3(C)C(N)=O)cc2cc(Cl)cnc12` [Example 333] had an EC50 under setting [2] of under 0.2 µM.
Take `COc1cc(C(=O)NC[C@](O)(c2cc3c(c(-c4ccnc(C(F)F)c4Cl)n2)OC[C@]3(C)C(N)=O)C(F)(F)F)cc2cn(C(F)F)nc12` [Example 797]: under setting [1], the EC50 was under 0.2 µM.
Compound `COc1cc(C(=O)NC[C@@](O)(c2ccccc2)c2cc3c(c(-c4ccnc(F)c4Cl)n2)OC[C@]3(C)C(N)=O)cc2cn(C(F)F)nc12` [Example 358] returned an EC50 under setting [2] of under 0.2 µM.
Same read-out and setting: then `Cc1cc(C(=O)NC[C@](O)(c2cc3c(c(-c4cc(F)c(F)cc4F)n2)OC[C@]3(C)C(N)=O)C2CC2)cc2cn[nH]c12` [Example 120], with over 0.2 µM; and `Cc1nc2c(OC(F)F)cc(C(=O)NC[C@](O)(c3cc4c(c(-c5cc(Cl)c(F)cc5F)n3)OC[C@]4(C)C(N)=O)c3ccccc3F)cc2cc1Br` [Example 139], with over 0.2 µM; and `C[C@]1(C(N)=O)COc2c1cc([C@@](O)(CNC(=O)c1ccc3nc(C(F)F)oc3c1)c1ccccc1)nc2-c1cc(Cl)c(F)cc1F` [Example 222], with over 0.2 µM.
Still for that read-out and setting: the same measure for `COc1cc(C(=O)NC[C@](O)(c2cc3c(c(-c4ccnc(C)c4Cl)n2)OC[C@]3(C)C(N)=O)C2(F)CC2)cn2cc(C3(F)CC3)nc12` [Example 528]: over 0.2 µM.
Turning to `COc1cc(C(=O)NC[C@](O)(c2cc3c(c(-c4ccnc(C(F)(F)F)c4)n2)OC[C@]3(C)C(N)=O)C2CC2)cc2oc(C3CC3)nc12` [Example 763], the 50% effective concentration (EC50) under setting [1] was under 0.2 µM.
Compound `COc1cc(OC)c2cc(C(=O)NC[C@@](O)(c3ccccc3)c3cc4c(c(-c5cc(Cl)c(F)cc5F)n3)OC[C@]4(C)C(N)=O)[nH]c2c1` [Example 94] showed an EC50 under setting [2] of over 0.2 µM.
Same read-out and setting: then `COc1nccc(-c2nc([C@@](O)(CNC(=O)c3cc(OC)c4nc(C5CC5)oc4c3)C(F)(F)F)cc3c2OC[C@]3(C)C(N)=O)c1Cl` [Example 545], with under 0.2 µM; and `COc1cc(C(=O)NC[C@](O)(c2cc3c(c(-c4cc(C(F)F)c(F)cc4F)n2)OC[C@]3(C)C(N)=O)C(F)(F)F)cc2cn(C3CC3)nc12` [Example 396], with under 0.2 µM; and `C[C@]1(C(N)=O)COc2c1cc([C@@](O)(CNC(=O)c1cc(OC3CC3)c3nn(C4CC4)cc3c1)c1ccccc1)nc2-c1cc(Cl)c(F)cc1F` [Example 98], with under 0.2 µM.
In turn, `COc1cc(C(=O)NCC(O)(c2cc3c(c(-c4cc(C(F)(F)F)ncc4Cl)n2)OC[C@]3(C)C(N)=O)C2CC2)cc2cn(C3CC3)nc12` (stereo partly shown) [Example 418] gave a concentration giving a half-maximal response (EC50) under setting [2] of over 0.2 µM.
Same read-out and setting: then `COc1cc(C(=O)NC[C@@](O)(c2ccc(F)cc2)c2cc3c(c(-c4ccnc(C(F)(F)F)c4F)n2)OC[C@]3(C)C(N)=O)cc2oc(C3CC3)nc12` [Example 574], with under 0.2 µM; and `COc1cc(C(=O)NC[C@@](O)(c2ccccc2)c2cc3c(c(-c4cc(F)c(F)cc4F)n2)OC[C@]3(C)C(N)=O)cc2cc(Cl)cnc12` [Example 198], with under 0.2 µM.
On to `COc1cc(F)c(F)cc1-c1nc([C@@](O)(CNC(=O)c2cc(OC)c3nn(C4(F)CC4)cc3c2)c2ccccc2)cc2c1OC[C@]2(C)C(N)=O` [Example 365], for which the EC50 under setting [2] was under 0.2 µM.
Turning to `[2H]C([2H])([2H])NC(=O)[C@@]1(C)COc2c1cc([C@@](O)(CNC(=O)c1cc(OC)c3nc(C4CC4)oc3c1)c1ccccc1)nc2-c1cc(Cl)c(F)cc1F` [Example 110], the EC50 under setting [2] was under 0.2 µM.
`COc1cc(C(=O)NCC(O)(c2cc3c(c(-c4cc(C(F)(F)F)ncc4Cl)n2)OC[C@]3(C)C(N)=O)C2CC2)cc2cn(C3CC3)nc12` (stereo partly shown) [Example 870] displayed an EC50 under setting [1] of over 0.2 µM.
Compound `COc1cc(C(=O)NC[C@](O)(c2cc3c(c(-c4ccnc(F)c4Cl)n2)OC[C@]3(C)C(N)=O)C2CC2)cc2cn(C(F)F)nc12` [Example 207] came in with a 50% effective concentration (EC50) under setting [2] of under 0.2 µM.
The same measure, in the same setting: then `COc1cc(C(=O)NC[C@](O)(c2cc3c(c(-c4ccnc(Cl)c4C)n2)OC[C@]3(C)C(N)=O)C2CC2)cc2cn(C3CC3)nc12` [Example 427], with under 0.2 µM.
Compound `COc1cc(C(=O)NC[C@](O)(c2cc3c(c(-c4cc(C(F)(F)F)ncc4F)n2)OC[C@]3(C)C(N)=O)C2(F)CC2)cn2cc(C3CC3)nc12` [Example 668] displayed an EC50 under setting [1] of under 0.2 µM.
Under setting [2], `COc1cc(C(=O)NC[C@@](O)(c2ccccc2)c2cc3c(c(-c4ccc5c(c4)OC(F)(F)O5)n2)OC[C@]3(C)C(N)=O)cc2oc(C3CC3)nc12` [Example 200] registered a half-maximal effective concentration (EC50) of under 0.2 µM.
Under setting [1], `COc1cc(C(=O)NC[C@](O)(c2cc3c(c(-c4cc(C5CC5)ncc4F)n2)OC[C@]3(C)C(N)=O)C2CC2)cc2cn(C3CC3)nc12` [Example 723] showed an EC50 of under 0.2 µM.
On the same count and under the same terms, then `COc1cc(C(=O)NC[C@](O)(c2cc3c(c(-n4ncc5c4CCCC5)n2)OC[C@]3(C)C(N)=O)C2CC2)cc2oc(C3CC3)nc12` [Example 644], with over 0.2 µM.
Turning to `COc1cc(C(=O)NC[C@@](O)(c2cccc(F)c2)c2cc3c(c(-c4ccnc(C)c4Cl)n2)OC[C@]3(C)C(N)=O)cc2cn(C(F)F)nc12` [Example 538], the EC50 under setting [2] is under 0.2 µM.
Same read-out and setting: the same measure for `COc1nccc(-c2nc([C@@](O)(CNC(=O)c3cc(OC4CC4)c4nn(C(F)F)cc4c3)C3CC3)cc3c2OC[C@]3(C)C(N)=O)c1Cl` [Example 591]: under 0.2 µM; for `COc1nccc(-c2nc([C@@](O)(CNC(=O)c3cc(OC)c4nc(C)sc4c3)C(F)(F)F)cc3c2OC[C@]3(C)C(N)=O)c1Cl` [Example 546]: under 0.2 µM.
`COc1nccc(-c2nc([C@@](O)(CNC(=O)c3cc(OC)c4nc(C5CC5)cn4c3)C(C)C)cc3c2OC[C@]3(C)C(N)=O)c1Cl` [Example 891] came in with an EC50 under setting [1] of over 0.2 µM.
`COc1cc(-c2nc([C@@](O)(CNC(=O)c3cc(OC)n4nc(C5CC5)cc4c3)c3ccccc3)cc3c2OC[C@]3(C)C(N)=O)c(F)cn1` [Example 639] came in with a half-maximal effective concentration (EC50) under setting [1] of under 0.2 µM.

These data come from patent US20240368174A1, “Antiviral Heterocyclic Compounds” (Enanta Pharmaceuticals, Inc., priority 2023, published 2024).
